In article PMC9061999, “Application of the Adverse Outcome Pathway Concept to In Vitro Nephrotoxicity Assessment: Kidney Injury due to Receptor-Mediated Endocytosis and Lysosomal Overload as a Case Study” (Frontiers in Toxicology, 2022):

System: RPTEC/TERT1 cells
Experiment: LC-MS/MS analysis of intracellular concentration
Type: in vitro ADME, human
Conditions: for Intracellular concentration after recovery compared to the 24 h time-point: RPTEC/TERT1, 34 µM for 24 h, then 24 h in fresh medium; for Time course of intracellular concentration: within the 24 h treatment period (1-2 min, 1, 3, 6, 24 h), n = 3
Method: NRK-52E and RPTEC/TERT1 cells were seeded in 12-well plates (120,000 cells per well) and were allowed to grow for 48 h (NRK-52E) or 10 d (RPTEC/TERT1) until they reached 100% confluence. After cells achieved 100% confluence, the supernatant was aspirated, and the cells were washed twice with 1 x PBS. Cells were treated with polymyxins at a final concentration of 34 µM for 24 h. Samples were taken at five different treatment time points (1–2 min, 1, 3, 6, and 24 h). In addition, a recovery sample was taken 24 h after the end of the 24 h treatment period. To this end, the supernatant was aspirated after 24 h treatment and the cells were washed three times with 1 x PBS to remove polymyxin B or colistin residues. Fresh growth medium was added, and the cells were incubated for another 24 h. At the end of each experiment, the cells were washed 3 times with 1 x PBS and trypsinized by adding 200 µL of trypsin. Detached cells were washed with 1,000 µL 1 x PBS and the cells were transferred to LoBind™ tubes (Eppendorf). Cell count was determined using a Fuchs-Rosenthal counting chamber (Hartenstein). Cells were centrifuged for 5 min at 4°C at 10.000 rpm and the supernatant was aspirated. Cells were resuspended in 1,000 µL 1 x PBS and centrifuged for 5 min at 4°C at 10.000 rpm. After centrifugation, the supernatant was aspirated, and the cell pellet was resuspended in 250 µL ammonium acetate buffer (10 mM) and 250 µL of 30% methanol with 1% acetic acid containing polymyxin B respectively colistin as an internal standard. Cells were sonicated for 10 min and centrifuged for 5 min at 4°C at 14.000 rpm. The supernatant was transferred quantitatively into new LoBind™ tubes (Eppendorf) and dried in a centrifugal vacuum concentrator for 2–3 h. To measure compound plastic binding, the empty 12 well plates were washed with 1.5 ml acetonitrile on an orbital shaker for 2 h and supernatant was collected. For sample purification via solid phase extraction, SPE cartridges Strata-X 33 µm polymeric reversed phase, 10 mg/1 ml (Phenomenex) were used. In the conditioning step the cartridges were rinsed with 200 µL methanol (100%) and subsequently with 200 µL ddH2O to activate the sorbent bed. The dried samples were dissolved in 200 µL 1% acetic acid and transferred onto the SPE cartridge. The SPE cartridge were rinsed once with 200 µL 1% acetic acid. Impurities were removed by rinsing the cartridge once with 200 µL 10% methanol. A fresh LoBind™ tube (Eppendorf) was placed under the SPE cartridge to eluate the samples by rinsing twice with 200 µL 90% methanol containing 1% acetic acid. The samples were dried in a centrifugal vacuum concentrator for 2–3 h. All samples were stored at −20°C until LC-MS/MS analysis.
A triple quadrupole mass spectrometer equipped with a Turbo-Ion® Spray source (QTrap API 2000; AB Sciex Instruments) was used for analyses. The mass spectrometer was coupled to an Agilent 1100 HPLC system consisting of a binary pump system, a vacuum degasser and an autosampler (Agilent 1,100). […]

| Substance | Intracellular concentration compared to polymyxin B (RPTEC/TERT1, 34 µM) | Intracellular concentration after recovery compared to the 24 h time-point | Time course of intracellular concentration (RPTEC/TERT1, 34 µM) |
| --- | --- | --- | --- |
| Colistin | lower intracellular concentrations | declined during the 24 h off-dose recovery period | continuous rise in the intracellular concentration |
| Polymyxin B |  | declined during the 24 h off-dose recovery period | continuous rise in the intracellular concentration |
